IC50 data for 38 compounds are collected here from US20240025893A1, “PYRIMIDINE-AND NITROGEN-CONTAINING BICYCLIC COMPOUND” (Asahi Kasei Pharma Corporation, priority 2020, published 2024).

For one experiment, the target named is human IRAK-4 (Homo sapiens (Human), UniProt Q9NWZ3). The experiment can be described thus: Measurement of human IRAK-4 inhibitory activity (TR-FRET, peptide substrate phosphorylation, 10 μM ATP). Format: biochemical. The settings on record: 1 nM IRAK-4, 10 μM ATP, 23° C., 30 minutes; average values. In short, it runs like this:
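With 1 nM IRAK-4, 0.5 μM biotinylated peptide and 10 μM ATP, compound incubated 30 min at 23 °C in 50 mM HEPES pH 7.2 with Mg2+/Mn2+. Stopped with EDTA plus europium-cryptate anti-phosphopeptide antibody and streptavidin-XL665, 60 min at 23 °C. Activity taken as the 665/620 nm TR-FRET ratio.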

For experiment [1], the system named is LPS-stimulated TNFα production in THP-1 cells. The experiment can be described thus: LPS-stimulated TNFα production inhibition test using human acute monocytic leukemia cell strain THP-1. The class given is cell-based. The settings on record: Homo sapiens, THP-1, 4 h, LPS 2.5 ng/mL, average values. In short, it runs like this:
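THP-1 cells were preincubated with compound for 1 h at 37 °C, then stimulated with LPS (2.5 ng/mL final) for 4 h. Supernatant TNFα was quantified by HTRF (620/665 nm ratio) against a calibration curve. IC50 came from a 4-parameter logistic fit, with no-LPS set as 100% and no-compound as 0% suppression.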

Chain of human IRAK-4 (Q9NWZ3 whole entry): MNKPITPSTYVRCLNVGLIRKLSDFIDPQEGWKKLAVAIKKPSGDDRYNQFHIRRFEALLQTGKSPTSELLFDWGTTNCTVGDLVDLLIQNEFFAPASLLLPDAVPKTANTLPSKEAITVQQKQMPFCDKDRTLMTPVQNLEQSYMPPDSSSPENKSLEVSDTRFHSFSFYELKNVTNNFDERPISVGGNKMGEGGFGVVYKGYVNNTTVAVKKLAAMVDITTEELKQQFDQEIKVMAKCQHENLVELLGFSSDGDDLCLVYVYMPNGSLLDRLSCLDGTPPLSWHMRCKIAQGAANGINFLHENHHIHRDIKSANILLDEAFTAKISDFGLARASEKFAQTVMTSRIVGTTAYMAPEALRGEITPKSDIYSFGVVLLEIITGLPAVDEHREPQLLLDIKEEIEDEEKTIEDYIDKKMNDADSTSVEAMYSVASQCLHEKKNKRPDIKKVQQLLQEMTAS

Take `C[C@H]1CN(C(=O)c2ccnnc2)CCN1[C@H]1C[C@@H](C(=O)Nc2nc3ccc(-c4cnc(CO[C@H]5CCC[C@@H]5O)nc4)cc3s2)C1` [b-04-28]: the results for the IC50 (against human IRAK-4; in experiment [1]) were 1.58 nM and 72 nM, respectively.
Turning to `Cc1oncc1C(=O)N1CCN([C@H]2C[C@@H](C(=O)Nc3nc4ccc(-c5cnc(CO[C@H]6CCC[C@@H]6O)nc5)cc4s3)C2)[C@@H](C)C1` [b-04-29], the IC50 at human IRAK-4 is 1.6 nM; in experiment [1], 55 nM.
On to `C[C@H]1CN(C(=O)c2cccnc2C(F)(F)F)CCN1[C@H]1C[C@@H](C(=O)Nc2nc3ccc(-c4cnc(CO[C@H]5CCC[C@@H]5O)nc4)cc3s2)C1` [b-04-30], for which the IC50 was found to be 1.49 nM on human IRAK-4 and 62 nM in experiment [1].
The like results for `C[C@H]1CN(C(=O)c2nccs2)CCN1[C@H]1C[C@@H](C(=O)Nc2nc3ccc(-c4cnc(CO[C@H]5CCC[C@@H]5O)nc4)cc3s2)C1` [b-04-31] were, in that order, 1.73 nM and 55 nM.
The like results for `Cc1nc(C)c(C(=O)N2CCN([C@H]3C[C@@H](C(=O)Nc4nc5ccc(-c6cnc(CO[C@H]7CCC[C@@H]7O)nc6)cc5s4)C3)[C@@H](C)C2)s1` [b-04-32] were, in that order, 1.57 nM and 50 nM.
The like results for `C[C@H]1CN(C(=O)c2ccno2)CCN1[C@H]1C[C@@H](C(=O)Nc2nc3ccc(-c4cnc(CO[C@H]5CCC[C@@H]5O)nc4)cc3s2)C1` [b-04-33] were, in that order, 1.99 nM and 55 nM.
Regarding `C[C@H]1CN(C(=O)c2cnccn2)CCN1[C@H]1C[C@@H](C(=O)Nc2nc3ccc(-c4cnc(CO[C@H]5CCC[C@@H]5O)nc4)cc3s2)C1` [b-04-34], the results for the IC50 (against human IRAK-4; in experiment [1]) were 1.65 nM and 66 nM, respectively.
`C[C@H]1CN(C(=O)c2ccnc(C(F)(F)F)c2)CCN1[C@H]1C[C@@H](C(=O)Nc2nc3ccc(-c4cnc(CO[C@H]5CCC[C@@H]5O)nc4)cc3s2)C1` [b-04-35]: the values for the IC50 (on human IRAK-4; in experiment [1]) were 2.08 nM and 37 nM, respectively.
As to `Cc1nc(C(=O)N2CCN([C@H]3C[C@@H](C(=O)Nc4nc5ccc(-c6cnc(CO[C@H]7CCC[C@@H]7O)nc6)cc5s4)C3)[C@@H](C)C2)co1` [b-04-36], the IC50 stood at 0.9 nM on human IRAK-4 and 48 nM in experiment [1].
Regarding `C[C@H]1CN(C(=O)c2ccc(Cl)cn2)CCN1[C@H]1C[C@@H](C(=O)Nc2nc3ccc(-c4cnc(CO[C@H]5CCC[C@@H]5O)nc4)cc3s2)C1` [b-04-37], the IC50 against human IRAK-4 turned out to be 0.81 nM; in experiment [1], 35 nM.
The like results for `C[C@H]1CN(C(=O)c2cncnc2)CCN1[C@H]1C[C@@H](C(=O)Nc2nc3ccc(-c4cnc(CO[C@H]5CCC[C@@H]5O)nc4)cc3s2)C1` [b-04-38] were, in that order, 0.85 nM and 87 nM.
Turning to `C[C@H]1CN(C(=O)c2ccon2)CCN1[C@H]1C[C@@H](C(=O)Nc2nc3ccc(-c4cnc(CO[C@H]5CCC[C@@H]5O)nc4)cc3s2)C1` [b-04-39], the IC50 against human IRAK-4 is 0.66 nM; in experiment [1], 44 nM.
For `Cc1cc(C(=O)N2CCN([C@H]3C[C@@H](C(=O)Nc4nc5ccc(-c6cnc(CO[C@H]7CCC[C@@H]7O)nc6)cc5s4)C3)[C@@H](C)C2)cc(C)n1` [b-04-40], the concentration for half-maximal inhibition (IC50) against human IRAK-4 came out at 0.89 nM; in experiment [1], 25 nM.
Regarding `CCCOCc1ncc(-c2ccc3nc(NC(=O)[C@H]4C[C@@H](N5CCN(C(=O)c6cc(F)ccn6)C[C@@H]5C)C4)sc3c2)cn1` [b-04-41], the concentration for half-maximal inhibition (IC50) against human IRAK-4 was 0.69 nM; in experiment [1] it was 76 nM.
As for `CCCOCc1ncc(-c2ccc3nc(NC(=O)[C@H]4C[C@@H](N5CCN(C(=O)c6cc(C)ccn6)C[C@@H]5C)C4)sc3c2)cn1` [b-04-42], the IC50 on human IRAK-4 was 0.49 nM; in experiment [1] it was 64 nM.
The like results for `CCCOCc1ncc(-c2ccc3nc(NC(=O)[C@H]4C[C@@H](N5CCN(C(=O)c6ccncc6Cl)C[C@@H]5C)C4)sc3c2)cn1` [b-04-43] were, in that order, 0.65 nM and 96 nM.
For the compound `Cc1ccc(C(=O)N2CCN([C@H]3C[C@@H](C(=O)Nc4nc5ccc(-c6cnc(CO[C@H]7CCC[C@@H]7O)nc6)cc5s4)C3)[C@@H](C)C2)cn1` [b-04-44], the IC50 was found to be 0.46 nM at human IRAK-4 and 23 nM in experiment [1].
In the case of `COc1ccc(C(=O)N2CCN([C@H]3C[C@@H](C(=O)Nc4nc5ccc(-c6cnc(CO[C@H]7CCC[C@@H]7O)nc6)cc5s4)C3)[C@@H](C)C2)cn1` [b-04-45], the half-inhibitory concentration (IC50) came out at 0.66 nM against human IRAK-4 and 15 nM in experiment [1].
For `C[C@H]1CN(C(=O)c2cc(F)ccn2)CCN1[C@H]1C[C@@H](C(=O)Nc2nc3ccc(-c4cnc(CO[C@H]5CCC[C@@H]5O)nc4)cc3s2)C1` [b-04-46], the IC50 against human IRAK-4 is 0.58 nM; in experiment [1], 22 nM.
On to `Cc1ccnc(C(=O)N2CCN([C@H]3C[C@@H](C(=O)Nc4nc5ccc(-c6cnc(CO[C@H]7CCC[C@@H]7O)nc6)cc5s4)C3)[C@@H](C)C2)c1` [b-04-47], for which the IC50 at human IRAK-4 is 0.54 nM; in experiment [1] it was 26 nM.
On to `C[C@H]1CN(C(=O)c2ccncc2Cl)CCN1[C@H]1C[C@@H](C(=O)Nc2nc3ccc(-c4cnc(CO[C@H]5CCC[C@@H]5O)nc4)cc3s2)C1` [b-04-48], for which the figures for the IC50 (on human IRAK-4; in experiment [1]) were 0.52 nM and 35 nM, respectively.
The like results for `CC(=O)N1CCN([C@H]2C[C@@H](C(=O)Nc3nc4ccc(-c5cnc(CO[C@H]6CCC[C@@H]6O)nc5)cc4s3)C2)[C@@H](C)C1` [b-05-01, (1R,3s)-3-((S)-4-Acetyl-2-methylpiperazin-1-yl)-N-(6-(2-((((1S,2S)-2-hydroxycyclopentyl)oxy)methyl)pyrimidin-5-yl)benzo[d]thiazol-2-yl)cyclobutane-1-carboxamide] were, in that order, 1.9 nM and 48 nM.
Regarding `C[C@H]1CN(C(=O)C2CC2)CCN1[C@H]1C[C@@H](C(=O)Nc2nc3ccc(-c4cnc(CO[C@H]5CCC[C@@H]5O)nc4)cc3s2)C1` [b-05-02], the IC50 against human IRAK-4 turned out to be 2.47 nM; in experiment [1], 56 nM.
As for `COCC(=O)N1CCN([C@H]2C[C@@H](C(=O)Nc3nc4ccc(-c5cnc(CO[C@H]6CCC[C@@H]6O)nc5)cc4s3)C2)[C@@H](C)C1` [b-05-03], the results for the IC50 (on human IRAK-4; in experiment [1]) were 1.81 nM and 50 nM, respectively.
For `C[C@H]1CN(C(=O)c2ccccc2)CCN1[C@H]1C[C@@H](C(=O)Nc2nc3ccc(-c4cnc(CO[C@H]5CCC[C@@H]5O)nc4)cc3s2)C1` [b-05-04], the figures for the 50% inhibitory concentration (IC50) (against human IRAK-4; in experiment [1]) were 4.38 nM and 24 nM, respectively.
Regarding `CCC(=O)N1CCN([C@H]2C[C@@H](C(=O)Nc3nc4ccc(-c5cnc(CO[C@H]6CCC[C@@H]6O)nc5)cc4s3)C2)[C@@H](C)C1` [b-05-05], the IC50 on human IRAK-4 was 1.95 nM; in experiment [1] it was 50 nM.
Regarding `CC(C)C(=O)N1CCN([C@H]2C[C@@H](C(=O)Nc3nc4ccc(-c5cnc(CO[C@H]6CCC[C@@H]6O)nc5)cc4s3)C2)[C@@H](C)C1` [b-05-06], the half-inhibitory concentration (IC50) worked out at 2.25 nM against human IRAK-4 and 46 nM in experiment [1].
In the case of `C[C@H]1CN(C(=O)C2CCC2)CCN1[C@H]1C[C@@H](C(=O)Nc2nc3ccc(-c4cnc(CO[C@H]5CCC[C@@H]5O)nc4)cc3s2)C1` [b-05-07], the IC50 at human IRAK-4 stood at 2.51 nM; in experiment [1], 44 nM.
As for `C[C@H]1CN(C(=O)N2CCC2)CCN1[C@H]1C[C@@H](C(=O)Nc2nc3ccc(-c4cnc(CO[C@H]5CCC[C@@H]5O)nc4)cc3s2)C1` [b-05-09], the results for the half-inhibitory concentration (IC50) (against human IRAK-4; in experiment [1]) were 2.13 nM and 44 nM, respectively.
Turning to `C[C@H]1CN(C(=O)Nc2ccccc2)CCN1[C@H]1C[C@@H](C(=O)Nc2nc3ccc(-c4cnc(CO[C@H]5CCC[C@@H]5O)nc4)cc3s2)C1` [b-06-02], the 50% inhibitory concentration (IC50) against human IRAK-4 is 4.19 nM; in experiment [1], 46 nM.
For the compound `C[C@H]1CN(CC(F)(F)F)CCN1C1CC(C(=O)Nc2nc3ccc(-c4cnc(CO[C@H]5CCC[C@@H]5O)nc4)cc3s2)C1` (stereo partly drawn) [b-07-01, N-(6-(2-((((1S,2S)-2-Hydroxycyclopentyl)oxy)methyl)pyrimidin-5-yl)benzo[d]thiazol-2-yl)-3-((S)-2-methyl-4-(2,2,2-trifluoroethyl)piperazin-1-yl)cyclobutane-1-carboxamide], the IC50 on human IRAK-4 was 2.34 nM; in experiment [1] it was 58 nM.
The matching figures for `C[C@H]1CN(C2CC2)CCN1C1CC(C(=O)Nc2nc3ccc(-c4cnc(CO[C@H]5CCC[C@@H]5O)nc4)cc3s2)C1` (stereo partly drawn) [b-08-01, 3-((S)-4-Cyclopropyl-2-methylpiperazin-1-yl)-N-(6-(2-((((1S,2S)-2-hydroxycyclopentyl)oxy)methyl)pyrimidin-5-yl)benzo[d]thiazol-2-yl)cyclobutane-1-carboxamide]: 1.97 nM and 56 nM.
The like results for `COc1c(-c2cnc(CO[C@H]3CCC[C@@H]3O)nc2)ccc2nc(NC(=O)[C@@H]3C[C@H]3C)sc12` [c-02-01] were, in that order, 3.7 nM and 110 nM.
The matching figures for `COc1c(-c2cnc(CO[C@H]3CCC[C@@H]3O)nc2)ccc2nc(NC(=O)[C@H]3C[C@H]3F)sc12` [c-02-04]: 3.35 nM and 261 nM.
Regarding `COc1c(-c2cnc(CO[C@H]3CCC[C@@H]3O)nc2)ccc2nc(NC(=O)[C@H]3C[C@@](C)(O)C3)sc12` [c-02-05], the 50% inhibitory concentration (IC50) on human IRAK-4 worked out at 4.64 nM; in experiment [1] it was 175 nM.
The like results for `COc1c(-c2cnc(CO[C@H]3CCC[C@@H]3O)nc2)ccc2nc(NC(=O)C3CC34CC4)sc12` (stereo partly shown) [c-02-06] were, in that order, 2.13 nM and 194 nM.
Turning to `COc1c(-c2cnc(CO[C@H]3CCC[C@@H]3O)nc2)ccc2nc(NC(=O)C3CC(OC(C)(C)C)C3)sc12` (stereo partly shown) [c-02-07], the values for the half-maximal inhibitory concentration (IC50) (at human IRAK-4; in experiment [1]) were 1.56 nM and 76 nM, respectively.
In the case of `COc1c(-c2cnc(CO[C@H]3CCC[C@@H]3O)nc2)ccc2nc(NC(=O)[C@@H]3C[C@@H]3F)sc12` [c-02-08], the IC50 on human IRAK-4 was determined as 2.44 nM; in experiment [1] it was 196 nM.
